Data on 24 compounds can be found in patent US12643910B2, “Substituted pyrazolo[3,4-b]pyridines as ectonucleotide pyrophosphatase/phosphodiesterase 1 (ENPP1) modulators” (SANFORD BURNHAM PREBYS MEDICAL DISCOVERY INSTITUTE, priority 2019, dated 2026).

In one assay the target is T1, ENPP3 (Homo sapiens, UniProt O14638).
T1 sequence (O14638 1-875): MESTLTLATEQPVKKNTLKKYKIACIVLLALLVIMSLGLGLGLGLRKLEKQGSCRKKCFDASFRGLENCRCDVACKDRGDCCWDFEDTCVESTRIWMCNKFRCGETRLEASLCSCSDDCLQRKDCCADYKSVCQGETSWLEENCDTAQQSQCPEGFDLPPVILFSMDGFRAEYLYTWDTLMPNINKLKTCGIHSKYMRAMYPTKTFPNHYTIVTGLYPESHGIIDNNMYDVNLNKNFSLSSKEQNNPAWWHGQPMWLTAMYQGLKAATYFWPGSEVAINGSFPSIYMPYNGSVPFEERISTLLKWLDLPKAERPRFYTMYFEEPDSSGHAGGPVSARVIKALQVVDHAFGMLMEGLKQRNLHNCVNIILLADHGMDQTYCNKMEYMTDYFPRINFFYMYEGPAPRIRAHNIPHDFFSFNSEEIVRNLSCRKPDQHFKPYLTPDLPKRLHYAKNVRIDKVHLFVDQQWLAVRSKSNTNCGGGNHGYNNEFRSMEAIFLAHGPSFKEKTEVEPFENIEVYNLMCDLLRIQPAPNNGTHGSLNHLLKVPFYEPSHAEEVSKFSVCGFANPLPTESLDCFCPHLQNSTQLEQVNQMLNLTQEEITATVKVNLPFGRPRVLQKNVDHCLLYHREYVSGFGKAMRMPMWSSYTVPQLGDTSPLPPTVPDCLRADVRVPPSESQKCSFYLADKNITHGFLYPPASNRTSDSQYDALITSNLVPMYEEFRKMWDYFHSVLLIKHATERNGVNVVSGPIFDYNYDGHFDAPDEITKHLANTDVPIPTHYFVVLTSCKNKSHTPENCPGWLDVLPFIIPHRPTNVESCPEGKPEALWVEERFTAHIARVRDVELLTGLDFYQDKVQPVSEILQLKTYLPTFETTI
As to the kind of experiment: ENPP3 Km ATP assay. Type of assay: biochemical. Particulars: ATP at Km.

The target in another assay is T2, human ENPP1 (Homo sapiens, UniProt P22413).
T2 construct: made in house
T2 sequence (P22413 1-925): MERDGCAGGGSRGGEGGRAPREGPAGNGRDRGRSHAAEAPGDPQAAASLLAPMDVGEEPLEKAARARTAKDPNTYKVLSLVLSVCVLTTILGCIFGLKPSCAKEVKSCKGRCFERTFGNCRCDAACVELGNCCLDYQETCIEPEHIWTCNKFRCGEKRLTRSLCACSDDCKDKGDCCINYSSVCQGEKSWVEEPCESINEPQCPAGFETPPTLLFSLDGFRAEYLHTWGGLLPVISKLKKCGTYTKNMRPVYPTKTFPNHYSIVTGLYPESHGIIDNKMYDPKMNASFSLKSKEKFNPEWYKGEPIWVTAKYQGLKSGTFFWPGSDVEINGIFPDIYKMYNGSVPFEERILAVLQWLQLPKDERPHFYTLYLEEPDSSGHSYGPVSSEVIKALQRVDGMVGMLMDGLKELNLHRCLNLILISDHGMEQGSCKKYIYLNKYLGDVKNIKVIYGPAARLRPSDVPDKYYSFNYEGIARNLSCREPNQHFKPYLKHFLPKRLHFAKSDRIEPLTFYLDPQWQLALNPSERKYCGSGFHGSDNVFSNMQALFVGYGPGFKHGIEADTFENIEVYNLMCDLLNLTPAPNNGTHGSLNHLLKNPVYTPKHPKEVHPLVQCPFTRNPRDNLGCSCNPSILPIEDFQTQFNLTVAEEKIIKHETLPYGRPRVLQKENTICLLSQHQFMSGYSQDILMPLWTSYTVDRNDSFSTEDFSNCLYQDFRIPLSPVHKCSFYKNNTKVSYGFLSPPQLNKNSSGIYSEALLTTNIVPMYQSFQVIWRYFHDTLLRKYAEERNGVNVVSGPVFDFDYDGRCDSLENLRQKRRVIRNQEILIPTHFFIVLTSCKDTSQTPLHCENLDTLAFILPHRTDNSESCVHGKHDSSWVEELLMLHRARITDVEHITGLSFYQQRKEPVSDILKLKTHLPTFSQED
As to the kind of experiment: ENPP1 assay with ATP substrate (Transcreener AMP2/GMP2 TR-FRET). Type of assay: biochemical. As to conditions: 1 hour at room temperature. The essentials: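 Reaction ran 1 h at room temperature in pH 7.5 Tris with MgCl2, TCEP, Tween 20 and 1% DMSO. ATP was added as a 300 nM stock and enzyme as an 8.5 μM stock. After EDTA stop, AMP was read by TR-FRET tracer displacement. Percent inhibition used enzyme/no-enzyme controls; IC50 was fitted with a variable slope.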
On the technique in general: In TR-FRET formats the signal depends on donor and acceptor labels being close together.

On to `Cn1ncc2c(NCc3ccc(S(N)(=O)=O)cc3)nc(NC3CC3)nc21` [Example 2.35, 4-(((6-(Cyclopropylamino)-1-methyl-1H-pyrazolo[3,4-d]pyrimidin-4-yl)amino)methyl)-benzenesulfonamide], for which the half-inhibitory concentration (IC50) against ENPP3 and on human ENPP1 was 0.1 to 1 µM in each case.
As to `CN(c1ccccc1)c1nc(NCc2ccc(S(N)(=O)=O)cc2)c2cnn(C)c2n1` [Example 2.36, 4-(((1-Methyl-6-(methyl(phenyl)amino)-1H-pyrazolo[3,4-d]pyrimidin-4-yl)amino)methyl)-benzenesulfonamide], the concentration for half-maximal inhibition (IC50) against ENPP3 was 0.1 to 1 µM; against human ENPP1 it was above 20 µM.
For the compound `Cn1ncc2c(NCc3ccc(S(N)(=O)=O)cc3)nc(N)nc21` [Example 2.37, 4-(((6-Amino-1-methyl-1H-pyrazolo[3,4-d]pyrimidin-4-yl)amino)methyl)-benzenesulfonamide], the IC50 against ENPP3 and against human ENPP1 was 0.1 to 1 µM throughout.
Take `NS(=O)(=O)c1ccc(CNc2ncnc3c2cnn3-c2ccccc2)cc1` [Example 2.38, 4-(((1-Phenyl-1H-pyrazolo[3,4-d]pyrimidin-4-yl)amino)methyl)benzenesulfonamide]: the IC50 at ENPP3 and on human ENPP1 was 1 to 20 µM in each case.
Turning to `C=Cc1nc(NCc2ccc(S(N)(=O)=O)cc2)c2cnn(C)c2n1` [Example 2.39, 4-(((1-Methyl-6-vinyl-1H-pyrazolo[3,4-d]pyrimidin-4-yl)amino)methyl)benzenesulfonamide], the 50% inhibitory concentration (IC50) against ENPP3 and at human ENPP1 was below 0.1 µM throughout.
Consider `CCc1nc(NCc2ccc(S(N)(=O)=O)cc2)c2cnn(C)c2n1` [Example 2.40, 4-(((6-Ethyl-1-methyl-1H-pyrazolo[3,4-d]pyrimidin-4-yl)amino)methyl)benzenesulfonamide], for which the IC50 is 0.1 to 1 µM against ENPP3 and below 0.1 µM at human ENPP1.
As to `Cn1ncc2c(NCc3ccc(S(N)(=O)=O)c(C(F)(F)F)c3)ncnc21` [Example 2.41, 4-(((1-Methyl-1H-pyrazolo[3,4-d]pyrimidin-4-yl)amino)methyl)-2-(trifluoromethyl)-benzenesulfonamide], the IC50 against ENPP3 is 1 to 20 µM; against human ENPP1 it was 0.1 to 1 µM.
Consider `COc1cc(CNc2ncnc3c2cnn3C)ccc1S(N)(=O)=O` [Example 2.42, 2-Methoxy-4-(((1-methyl-1H-pyrazolo[34-d]pyrimidin-4-yl)amino)methyl)-benzenesulfonamide], for which the IC50 against ENPP3 and against human ENPP1 was above 20 µM in each case.
For the compound `CN1CCC(n2ncc3c(NCc4ccc(S(N)(=O)=O)cc4)ncnc32)CC1` [Example 2.43, 4-(((1-(1-Methylpiperidin-4-yl)-1H-pyrazolo[3,4-d]pyrimidin-4-yl)amino)methyl)-benzenesulfonamide], the IC50 against ENPP3 is 1 to 20 µM; against human ENPP1 it was above 20 µM.
`Cn1nc(-c2ccccc2)c2c(NCc3ccc(S(N)(=O)=O)cc3)ncnc21` [Example 2.44, 4-(((1-Methyl-3-phenyl-1H-pyrazolo[3,4-d]pyrimidin-4-yl)amino)methyl)-benzenesulfonamide]: the half-maximal inhibitory concentration (IC50) on ENPP3 and against human ENPP1 was below 0.1 µM throughout.
In the case of `Cc1nn(C)c2ncnc(NCc3ccc(S(N)(=O)=O)cc3)c12` [Example 2.45, 4-(((1,3-Dimethyl-1H-pyrazolo[3,4-d]pyrimidin-4-yl)amino)methyl)benzenesulfonamide], the half-maximal inhibitory concentration (IC50) against ENPP3 and at human ENPP1 was 0.1 to 1 µM each time.
Consider `Cc1cc(CNc2ncnc3c2cnn3C)ccc1S(N)(=O)=O` [Example 2.46, 2-Methyl-4-(((1-methyl-1H-pyrazolo[3,4-d]pyrimidin-4-yl)amino)methyl)-benzenesulfonamide], for which the concentration for half-maximal inhibition (IC50) on ENPP3 and against human ENPP1 was 1 to 20 µM in each case.
Take `Cn1ncc2c(NCc3ccc(S(N)(=O)=O)cc3Cl)ncnc21` [Example 2.47, 3-Chloro-4-(((1-methyl-1H-pyrazolo[3,4-d]pyrimidin-4-yl)amino)methyl)-benzenesulfonamide]: the values for the 50% inhibitory concentration (IC50) against ENPP3 and at human ENPP1 were 1 to 20 µM and 0.1 to 1 µM, respectively.
On to `Cn1ncc2c(NCc3ccc(S(N)(=O)=O)cc3)nc(NCc3ccccc3)nc21` [Example 2.48, 4-(((6-(Benzylamino)-1-methyl-1H-pyrazolo[3,4-d]pyrimidin-4-yl)amino)methyl)-benzenesulfonamide], for which the half-inhibitory concentration (IC50) against ENPP3 and against human ENPP1 was 0.1 to 1 µM in each case.
With `CCNc1nc(NCc2ccc(S(N)(=O)=O)cc2)c2cnn(C)c2n1` [Example 2.49, 4-(((6-(Ethylamino)-1-methyl-1H-pyrazolo[3,4-d]pyrimidin-4-yl)amino)methyl)-benzenesulfonamide], the IC50 on ENPP3 and on human ENPP1 was 0.1 to 1 µM in each case.
In the case of `Cn1ncc2c(NCc3ccc(S(N)(=O)=O)cc3)nc(Nc3ccccc3)nc21` [Example 2.50, 4-(((1-Methyl-6-(phenylamino)-1H-pyrazolo[3,4-d]pyrimidin-4-yl)amino)methyl)-benzenesulfonamide], the half-maximal inhibitory concentration (IC50) on ENPP3 is 0.1 to 1 µM; at human ENPP1, below 0.1 µM.
Consider `Cc1nc(N2CCC(NCCCc3ccncc3)CC2)c2cnn(C)c2n1` [Example 2.51, 1-(1,6-Dimethyl-1H-pyrazolo[3,4-d]pyrimidin-4-yl)-N-(3-(pyridin-4-yl)propyl)piperidin-4-amine], for which the IC50 on ENPP3 and at human ENPP1 was above 20 µM in each case.
Take `Cn1ncc2c(NCc3ccc(S(N)(=O)=O)nc3)ncnc21` [Example 2.52, 5-(((1-Methyl-1H-pyrazolo[3,4-d]pyrimidin-4-yl)amino)methyl)pyridine-2-sulfonamide]: the IC50 on ENPP3 is 1 to 20 µM; at human ENPP1 it was below 0.1 µM.
The matching figures for `Cn1ncc2c(NCc3ccc(S(N)(=O)=O)cn3)ncnc21` [Example 2.53, 6-(((1-Methyl-1H-pyrazolo[3,4-d]pyrimidin-4-yl)amino)methyl)pyridine-3-sulfonamide]: above 20 µM and 0.1 to 1 µM.
As for `Cn1ncc2ncnc(NCc3ccc(S(N)(=O)=O)cc3)c21` [Example 2.54, 4-[(1-Methyl-1H-pyrazolo[4,3-d]pyrimidin-7-ylamino)-methyl]-benzenesulfonamide], the results for the IC50 at ENPP3 and at human ENPP1 were 1 to 20 µM and below 0.1 µM, respectively.
For `Cn1ncc2c(NCc3ccc(S(N)(=O)=O)cc3)cnnc21` [Example 2.55, 4-(((1-Methyl-1H-pyrazolo[3,4-c]pyridazin-4-yl)amino)methyl)benzenesulfonamide], the results for the IC50 at ENPP3 and against human ENPP1 were 1 to 20 µM and 0.1 to 1 µM, respectively.
The matching figures for `Cn1ncc2c(NCc3ccc(S(N)(=O)=O)cc3)nncc21` [Example 2.56, 4-(((1-Methyl-1H-pyrazolo[3,4-d]pyridazin-4-yl)amino)methyl)benzenesulfonamide]: above 20 µM and above 20 µM.
Turning to `Cc1noc2ncnc(N3CCC(NCCCc4ccc(F)cc4)CC3)c12` [Example 2.57, N-(3-(4-Fluorophenyl)propyl)-1-(3-methylisoxazolo[5,4-d]pyrimidin-4-yl)piperidin-4-amine], the IC50 against ENPP3 and at human ENPP1 was above 20 µM each time.
Consider `Cn1nnc2c(NCc3ccc(S(N)(=O)=O)cc3)ncnc21` [Example 2.58, 4-(((3-Methyl-3H-[1,2,3]triazolo[4,5-d]pyrimidin-7-yl)amino)methyl)benzenesulfonamide], for which the half-inhibitory concentration (IC50) at ENPP3 and against human ENPP1 was 1 to 20 µM throughout.

As a reminder, the IC50 is the concentration that inhibits the measured activity by half. Lower therefore signals greater potency in that assay.
